Experimental data reported in patent publication US9637459B2, “Sodium and calcium salts of dihydroquinazoline derivative and use thereof as antiviral agents” (AiCuris GmbH & Co. KG, priority 2012, dated 2017).
Converted amounts (≈) assume the structure as drawn. Like-named read-outs stand apart in the source and are kept apart here.

How the values were obtained:
HCMV AD169 RV-HG = test: HCMV fluorescence-reduction test (GFP-RA) in NHDF cells; type: cell-based, human cytomegalovirus; conditions: read-out: EC50 (GFP-RA)
Method: The in vitro effects of the compositions according to the present invention on the replication of the HCMV (human cytomegalovirus) can be seen in the following antiviral assay:
HCMV Fluorescence-Reduction Test.
The test compositions are used as a 50-millimolar (mM) solution in dimethyl sulphoxide (DMSO). Ganciclovir®, Foscarnet® or Cidofovir® can be used as reference compositions. One day before the beginning of the test, 1.5×10^4 human foreskin fibroblasts (NHDF cells)/well are seeded in 200 μl of cell culture medium in Wells B2-G11 of 96-well plates (black with transparent floor). The wells along the edges of each 96-well plate are filled with 200 μl of medium only in order to prevent edge effects. On the day of the test the cell culture medium in Wells B2-G11 of each 96-well plate is vacuumed off by a suction device and replaced with 100 μl of virus suspension (multiplicity of infection (MOI): 0.1-0.2). The virus used is a recombinant HCMV which has integrated an expression cassette for green fluorescence protein (GFP) in the virus genome (HCMV AD 169 RV-HG [E. M. Borst, K. Wagner, A. Binz, B. Sodeik, and M. Messerle, 2008, J. Virol. 82:2065-2078.]). After an incubation time of 2 h at 37° C. and 5% CO2, the virus inoculate is vacuumed off by a suction device and all wells, with the exception of the wells in Column 3, are filled with 200 μl of cell culture medium. Column 2 is not treated further and serves as a virus control. The wells in Column 3 are each filled with 300 μl of test substance (diluted in cell culture medium) for duplicate analysis. The concentration of the respective antiviral substance in Column 3 is ˜27 times as concentrated as the respective anticipated EC50 value. […] The GFP intensity of each well in a 96-well plate is then determined using a fluorescence scanner (FluoBox; Bayer Technology Services GmbH; filter settings: GFP, […], Em 520 nm). The measured values thus obtained can be used to determine the EC50 of an anti-HCMV: […]

[1] = Solubility measurement of saturated solution in phosphate buffer (HPLC); type: physicochemical
Method: In order to determine the solubility, a saturated solution of the salt from Example 2 was prepared in phosphate buffer at pH 7.0 and shaken at room temperature for 2 hours. The suspensions obtained were filtered by means of a syringe filter (0.45 μm pore diameter) and after being diluted the clear solutions were measured by HPLC. Pure phosphate buffer was used as the blank sample. The solubility was calculated in terms of the absorption of a reference solution of the amorphous zwitterion in phosphate buffer.

[2] = Human betaherpesvirus 5, AD169, NHDF, 168 h

SMILES	EC50 (HCMV AD169 RV-HG; [2]) [nM]	solubility at 2 h ([1]; aqueous buffer, thermodynamic from solid, phosphate buffer pH 7.0, room temperature, shaken 2 hours, filtered 0.45 μm, HPLC) [µg/mL]	Solubility in buffer ([1]; pH 7) [µg/mL]	EC50 (HCMV AD169 RV-HG; virus strain AD169 RV-HG, human foreskin fibroblasts (NHDF cells), 7 days incubation, 50% reduction of GFP fluorescence) [nM]
Nc1nc(O)c2ncn(COC(CO)CO)c2n1 [Ganciclovir, reference compound]	2200	–	–	–
COc1cccc(N2CCN(C3=Nc4c(F)cccc4[C@H](CC(=O)O)N3c3cc(C(F)(F)F)ccc3OC)CC2)c1 [Example 6A, (S)-{8-fluoro-2-[4-(3-methoxyphenyl)piperazine-1-yl]-3-(2-methoxy-5-trifluoromethyl-phenyl)-3,4-dihydroquinazoline-4-yl}acetic acid]	3.4	400 (≈ 699 µM)	–	–
COc1cccc(N2CCN(C3=Nc4c(F)cccc4[C@H](CC(=O)[O-])N3c3cc(C(F)(F)F)ccc3OC)CC2)c1.O.O.O.[Na+] [Example 2, 3-hydrate of the monosodium salt of (S)-{8-fluoro-2-[4-(3-methoxyphenyl)piperazine-1-yl]-3-[2-methoxy-5-(trifluoromethyl)phenyl]-3,4-dihydroquinazoline-4-yl}acetic acid]	–	–	>91700	3.9
